Holding throughout (format): biochemical
In assay [1] the target is T1, porcine pancreatic PLA2 (Sus scrofa, UniProt P00592).
T1 construct: purchased Sigma
The assay can be described thus: MHPLA2 assay: in vitro porcine pancreatic phospholipase A2, mixed micelle design, [s]=10 μm. As to conditions: for inhibition at 50 µg/mL: dose 50 μ/ml; for % Inh. / inhibition at 20 µg/mL: subs. con. 10; for inhibition at 20 µg/mL: dose 20 μ/ml. The essentials: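 Compounds dried with 10 μM 1-stearyl-2-[3H]-arachidonyl-PC substrate in mixed micelles (0.1M tris-HCl pH 9.0, 10 mM CaCl2, 10 mM Na taurocholate). Reaction started by adding enzyme and run 15 min at 37°C, then stopped with TCA. Released [3H]-arachidonate separated by TLC or column and counted by scintillation.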

Assay [2] has as its target T1, porcine pancreatic PLA2. The assay can be described thus: MPLA2 assay: in vitro porcine pancreatic phospholipase A2, mixed micelle design, substrate 2 nM. To be noted: for inhibition at 10 µg/mL: dose 10 μ/ml; for inhibition at 20 µg/mL: dose 20 μ/ml. The procedure:
(§1) Phospholipase A2 activity was measured by a radiochemical assay in which labeled synthetic phosphatidylcholine substrate is converted by porcine pancreatic PLA2 to free radiolabeled arachidonate and lyso PC. Radiolabeled arachidonate is extracted from the reaction mixture and separated from unreacted substrate by column chromatography or TLC. Radioactivity (cpm) in samples is quantitated by liquid scintillation counting. Specific details are as follows:
(§2) Labeled substrate(1-stearyl-2-^3 H-arachidonylphosphatidylcholine; Amersham, sp. act. 84 (uCi/mmole, 0.025 to 0.2 uCi/assay tube and unlabeled substrates (Avanti), in sufficient quantity to give 20,000 cpm to 50,000 cpm and 10 μM to 1,000 μM final concentration/assay tube are dried under a stream of nitrogen. The PLA2 and mPLA2 assays utilized a […] substrate concentration. The mHPLA2 and HPLA2 assays (vida infra) utilized a 10 μM substrate concentration and the SmPLA2 assay utilized a substrate concentration ranging from 100 to 1000 μm. The substrate is then redissolved in 0.1M tris-HCl buffer, pH 9.0 containing 10 mM CaCl2 and 10 mM Na taurocholate detergent. The mixture is sonicated in a Kontes Sonifier to yield a homogeneous dispersion. The "mixed" micellar substrate is clear. An aliquot is reserved for a cpm count (total substrate). The total reaction volume is 500 μL; siliconized glassware or plasticware is used throughout. Enzyme (Sigma, sp. act.>690 U/mg protein and preferably 900 U/mg protein) is diluted 1:750 or 1:1000 in 0.1M tris-HCl buffer, pH 9.0 (without Ca^++ and detergent). Enzyme dilution depends on substrate concentration and required enzyme concentration.
(§3) The substrate in buffer is kept on ice until the reaction is started. The reaction is started by adding 10 μL of diluted enzyme solution to 490 μL of micellar substrate solution. Samples are incubated in a 37° C. water bath for 15 minutes with gentle mixing. The reaction is terminated by the addition of 100 μL of 1M fresh trichloroacetic acid (TCA) solution and chilling the tubes on ice for 30 minutes.
(§4) Samples (600 μL) are extracted with 3 ml CHCl3 /MeOH (2:1) for thin layer chromatography or in hexane/ether (9:1) for column chromatography. The phases are separated by gentle centrifugation at 700 rpm×5'. The organic phase is recovered.
(§5) Labeled arachidonate extracted with CHCl3 /MeOH is separated on silica gel G TLC plates (Analtech). Twenty μL of a 2 mg/ml internal standard solution of arachidonic acid (Sigma) is combined with 2-3 ml of the organic phase. The entire mixture is dried under nitrogen and redissolved in 50 μL of CHCl3 /MeOH (2:1). A 20 μL sample is counted in 10 ml of Beckman Redi-solv HP and spotted on silica gel G plates. The solvent system used to develop the plate is CHCl3 /MeOH/13.5N NH3 /H2 O (70:30:4:1). Plates are developed in a glass chamber for 1-11/2 hours, air dried, and the spots visualized in an iodine vapor chamber. Standards of phosphatidylcholine, lyso PC, and arachidonic acid (Sigma) are made as 2 mg/ml stocks in CHCl3 /MeOH (2:1) and spotted on plates. Spots corresponding to arachidonate and phospholipid are scraped and counted in 10 ml Beckman Redi-Solv HP scintillation fluid.
(§6) Samples are extracted with hexane/ether and the upper organic phase recovered. An aliquot is applied to a Silicar CC4 (Malincrodt) column. Columns are prepared using 1 ml of a 1:1 slurry of silicar CC4 in hexane/ether in a Pasteur pipet (approx. 2 cm height). Columns are rinsed with 500 μL of hexane/ether before adding the sample (300-600 μL) to the column. Columns are eluted with a total of 6 ml of hexane/ether. The 6 ml sample is counted in 10 ml of Beckman Redi-Solv HP scintillation fluid.
(§7) or the phospholipase A2 assay, compounds are prepared as 1 mg/ml stock solutions in MeOH and diluted appropriately in PBS. […]

The target of assay [3] is T1, porcine pancreatic PLA2. The assay can be described thus: SMPLA2 assay: in vitro porcine pancreatic phospholipase A2, mixed micelle design, substrate 100 to 1000 μm. As to the method:
as §1, §2, §3, §4, §5, §6, §7

Assay [4] has as its target T1, porcine pancreatic PLA2. The assay can be described thus: PLA2 assay: in vitro porcine pancreatic phospholipase A2, preincubation of drug+enzyme, substrate 2 nM. To be noted: preincubation, subs. con. 2; for inhibition at 10 µg/mL: dose 10 μ/ml; for inhibition at 20 µg/mL: dose 20 μ/ml; for IC50: read-out: IC50 (converted). A digest of the protocol:
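Porcine pancreatic PLA2 acting on 2 nM radiolabeled arachidonyl-phosphatidylcholine in mixed micelles (0.1 M Tris-HCl pH 9.0, 10 mM CaCl2, 10 mM Na taurocholate), 15 min at 37 °C with preincubation of drug and enzyme. Stopped with TCA; released 3H-arachidonate extracted, separated by TLC or column, counted by scintillation.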

Assay [5] concerns the target T1, porcine pancreatic PLA2. Briefly: HPLA2 assay: in vitro porcine pancreatic phospholipase A2, preincubation design, [s]=10 μm. As to conditions: subs. con. 10, read-out: % Inh. As to the method: as §1, §2, §3, §4
as §5, with “The solvent system used to develop the plate is CHCl3 /MeOH/13.5N NH3 /H2 O (70:30:4:1).” left out
as §6
or the phospholipase A2 assay, compounds are prepared as 1 mg/ml stock solutions in MeOH and diluted appropriately in PBS.

Setting [6] is: dose 10 μ/ml, subs. con. 10, read-out: % Inh. Avg.
The mark [7] stands for this setting: dose 25 μ/ml, subs. con. 10, read-out: % Inh. Avg.
[8] abbreviates: dose 25 μ/ml, subs. con. 10, read-out: % Inh.
[9] abbreviates: subs. con. 10, read-out: IC50 (converted).
Setting [10] is: subs. con. 2, read-out: % Inh. Avg.
The mark [11] stands for this setting: dose 25 μ/ml, subs. con. 2, read-out: % Inh.

The structures appear in SMILES notation. “And” between values parts separate entries of the source, which are not always exact repeats. Equal entries are not always repeated. Structures can show the parent of a compound that is named as a salt.

Here are results for 6 molecules from patent US5208223A, “Phosphocholine derivative inhibitors of phospholipase A2” (American Cyanamid Company, priority 1992, dated 1993).

T1 sequence (P00592 23-146): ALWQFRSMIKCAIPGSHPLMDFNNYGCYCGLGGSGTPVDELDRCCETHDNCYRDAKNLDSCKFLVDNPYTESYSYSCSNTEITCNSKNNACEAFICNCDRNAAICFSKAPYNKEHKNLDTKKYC

As for `CCCCCCCCCCCCCCCCOCC(COP(=O)([O-])OCC[N+](C)(C)C)OC(=O)C(Br)CCCCCCCCCCCCCCCC` (stereo not shown) [10-Bromo-7-[(hexadecyloxy)methyl]-4-hydroxy-N,N,N-trimethyl-9-oxo-3,5,8-trioxa-4-phosphahexacosan-1-aminium, hydroxide, inner salt, 4-oxide], the inhibition at 10 µg/mL came to 8% in assay [1] (setting [6]); 82% in assay [2] (subs. con. 2, read-out: % Inh.); 8% in assay [3] (dose 10 μ/ml, subs. con. 100); 0% in assay [3] (dose 10 μ/ml, subs. con. 500); 5% in assay [3] (dose 10 μ/ml, subs. con. 1000). Further, the inhibition at 25 µg/mL was 10% in assay [1] (setting [7]); 1% in assay [3] (dose 25 μ/ml, subs. con. 100); 0% in assay [3] (dose 25 μ/ml, subs. con. 500); 10% in assay [3] (dose 25 μ/ml, subs. con. 1000). Also, the inhibition at 50 µg/mL was found to be 37% in assay [1] (subs. con. 10, read-out: % Inh.); 137% in assay [1] (subs. con. 10, read-out: % Inh. Avg.); 18% in assay [3] (dose 50 μ/ml, subs. con. 100); 8% in assay [3] (dose 50 μ/ml, subs. con. 500); 6% in assay [3] (dose 50 μ/ml, subs. con. 1000). In addition, the inhibition at 20 µg/mL in assay [2] (subs. con. 2, read-out: % Inh.) came to 82%. In addition, the IC50 (as a rule, the concentration at which inhibition is half-maximal) in assay [2] (subs. con. 2) is 1.81 µM.

For `CCCCCCCCCCCCCCCCOCC(COP(=O)([O-])OCC[N+](C)(C)C)CC(N)CCCCCCCCCCCCCCCC` (stereo not shown) [7-(2-Aminooctadecyl)-4-hydroxy-N,N,N-trimethyl-3,5,9-trioxa-4-phosphapentacosanaminium, hydroxide, inner salt, 4-oxide], the inhibition at 10 µg/mL in assay [4] (read-out: % Inh.) worked out at 95%; in assay [1] (setting [6]) it was 70%; in assay [2] (subs. con. 2, read-out: % Inh.), 34%; in assay [2] (setting [10]) it was 65%. Besides, the inhibition at 20 µg/mL was found to be 95% in assay [4] (read-out: % Inh.); 97% in assay [1]; 72% in assay [2] (subs. con. 2, read-out: % Inh.); 85% in assay [2] (setting [10]). Further, the concentration for half-maximal inhibition (IC50) was 0.682 µM in assay [4]; 1.91 µM and 7.09 µM and 8.73 µM in assay [1] (setting [9]); 5.87 µM in assay [1] (subs. con. 10, read-out: IC50 Avg. (converted)); 20.6 µM and 34.1 µM in assay [3] (subs. con. 100, read-out: IC50 (converted)); 27.3 µM in assay [3] (subs. con. 100, read-out: IC50 Avg. (converted)). Besides, the “% Inh.” value in assay [1] (dose 10 μ/ml) is 59%; in assay [2] (dose 25 μ/ml, subs. con. 2), “STIM”. Moreover, the inhibition at 25 µg/mL was found to be 78% in assay [1] (setting [8]); 77% in assay [1] (setting [7]); 92% in assay [2] (setting [11]); 63% in assay [3] (dose 25 μ/ml, subs. con. 100). The “% Inh. Avg.” value in assay [3] (dose 25 μ/ml, subs. con. 100) turned out to be 61%.

As to `CCCCCCCCCCCCCCCCOCC(COP(=O)([O-])OCC[N+](C)(C)C)OP(=O)(O)OCCCCCCCCCCCCCCCC` (stereo not shown) [3,5,8,10-Tetraoxa-4,9-diphosphahexacosan-1-aminium, 7-[(hexadecyloxy)methyl]-4,9-dihydroxy-N,N,N-trimethyl-, hydroxide, 4-inner salt), 4,9-dioxide], the inhibition at 20 µg/mL in assay [5] (dose 20 μ/ml) came to 0%. Further, the inhibition at 50 µg/mL in assay [5] (dose 50 μ/ml) was 0%.

`CCCCCCCCCCCCCCCCOCC(COP(=O)([O-])OCC[N+](C)(C)C)CP(=O)(OCC)OCC` (stereo not shown): the inhibition at 10 µg/mL turned out to be 71% in assay [4] (read-out: % Inh.); 74% in assay [4] (read-out: % Inh. Avg.); 18% in assay [1] (dose 10 μ/ml, subs. con. 10, read-out: % Inh.); 36% in assay [2] (subs. con. 2, read-out: % Inh.). For the same molecule, the inhibition at 20 µg/mL in assay [4] (read-out: % Inh.) was found to be 81%; in assay [1], 44%; in assay [2] (subs. con. 2, read-out: % Inh.) it was 60%. Moreover, the IC50 in assay [4] is 8.12 µM; in assay [1] (setting [9]), 91.3 µM and 265 µM; in assay [2] (subs. con. 2), 27.3 µM. Besides, the inhibition at 25 µg/mL in assay [1] (setting [8]) is 45%.

Turning to `CCCCCCCCCCCCCCCCOCC(COP(=O)([O-])OCC[N+](C)(C)C)OP(=O)(O)OCCCCC` (single isomer, unassigned; less polar) [3,5,8,10-Tetraoxa-4,9-diphosphapentadecan-1-aminium, 7-[(hexadecyloxy)methyl]-4,9-dihydroxy-N,N,N-trimethyl-, hydroxide, 4-(inner salt), 4,9-dioxide, less polar isomer], the inhibition at 10 µg/mL is 21% in assay [4] (read-out: % Inh.); 7% in assay [3] (dose 10 μ/ml, subs. con. 500); 22% in assay [3] (dose 10 μ/ml, subs. con. 1000). For the same molecule, the inhibition at 20 µg/mL in assay [4] (read-out: % Inh.) is 41%. Also, the “% Inh.” value in assay [1] (dose 10 μ/ml) was “STIM”; in assay [1] (dose 25 μ/ml), “STIM”; in assay [3] (dose 10 μ/ml, subs. con. 100), “STIM”; in assay [3] (dose 25 μ/ml, subs. con. 100) it was “STIM”; in assay [3] (dose 50 μ/ml, subs. con. 100) it was “STIM”; in assay [3] (dose 50 μ/ml, subs. con. 500) it was “STIM”. The “% Inh.” value in assay [3] (dose 50 μ/ml, subs. con. 1000) is “STIM”. In addition, the inhibition at 25 µg/mL in assay [2] (setting [11]) was 100%; in assay [3] (dose 25 μ/ml, subs. con. 500), 29%; in assay [3] (dose 25 μ/ml, subs. con. 1000), 3%.

As to `CCCCCCCCCCCCCCCCOCC(COP(=O)([O-])OCC[N+](C)(C)C)CC(O)C(F)(F)CCCCCCCCCCCCCCCC` (stereo not shown) [3,5.9-Trioxa-4-phosphapentacosan-1-aminium, 7-(3,3-difluoro-2-hydroxynonadecyl)-4-hydroxy-N,N,N-trimethyl-, hydroxide, inner salt, 4-oxide], the inhibition at 10 µg/mL in assay [4] (read-out: % Inh.) was determined as 45%. Besides, the inhibition at 20 µg/mL in assay [4] (read-out: % Inh.) was determined as 49%. Besides, the values for the inhibition at 25 µg/mL in assay [1] (setting [8]) and in assay [2] (setting [11]) were 11% and 82%, respectively.
